Data published in publication PMC5748856 (The Journal of Experimental Medicine, 2018).
“Also recorded” adds a separate entry of the source. Ends that are not written are not given here.

B1: H3.3K27M_(26–35) peptide (peptide)
peptide: RMSAPSTGGV

Experiments:
[1] = biological target: purified HLA-A*02:01 (Homo sapiens, UniProt P04439, D140Y/D185E/D98H/E176V/E277Q/G131W/G231S/I119V/I121R/I166T/I218V/L300P/L318F/N151K/N90K/P208A/P217A/Q86G/Q94H/R138H/R169H/T345S); conditions: for HLA-A*02:01 binding (in words): relative to H3.3K27M, cell-free binding assay, performed once (Fig. 4 A)
[2] = biological target: HLA-A*02:03 (human); test: radioligand binding

Row | Molecule | HLA-A*02:01 binding (in words) [1] | further results
1 | RKSAPSTGGV [H3.3WT, reference compound] |  | IC50 [1]: > 38700 nM
2 | RMSAPATGGV [A6] | abrogated; also recorded: diminished | 
3 | XMSAPSTGGV [Cit H3.3] | partially retains its affinity | 
4 | B1 |  | IC50 [2]: 747 nM
